Reference: US7045343B2, “Sterilization indicator test packs” (3M Innovative Properties Company, priority 1998, dated 2006)

Experiments:
[1] = system: enzyme associated with Bacillus stearothermophilus spores; assay: Rapid enzyme fluorescence readout of dual rapid readout indicators after prevacuum steam sterilization; type: biochemical; conditions: 4-pulse prevacuum steam 121° C.; for FLUORESCENCE - PERCENT POSITIVE 1 HR / FLUORESCENCE - PERCENT POSITIVE 2 HR / FLUORESCENCE - PERCENT POSITIVE 3 HR / FLUORESCENCE - PERCENT POSITIVE 4 HR: Example 5, 7–13 min
Description: (§1) The indicators prepared for the Examples were dual rapid readout indicators that provided both a rapid, enzyme-based efficacy test and a confirmatory spore outgrowth test. Spores coated on the carrier strip 16 served as the source of active enzyme whose activity was measured by the rapid enzyme test. These same spores were then incubated in the spore outgrowth portion of the test.
(§2) Bacillus stearothermophilus, commercially available as ATCC 7953 from American Type Culture Collection, Rockville, Md., was grown overnight (16 hours) at 58° C. in tryptic soy broth. This culture was used to inoculate the surface of agar plates consisting of 8 g/l nutrient broth, 4 g/l yeast extract, 0.1 g/l manganese chloride and 20 g/l agar at pH 7.2. Plates were incubated at 58° C. for 72 hours. Spores were scraped from the plates and suspended in sterile distilled water. The spores were separated from the vegetative debris by centrifuging the suspension at 7000 rpm and 4° C. for 20 minutes. The supernatant was poured off and the spores were resuspended in sterile distilled water. The cleaning procedure was repeated several times. After the final wash, the spores were suspended in sterile distilled water, at a concentration of approximately 1×10^8 spores per milliliter.
(§3) The spores were then treated with the chemicals identified in Tables 1–5. All chemicals tested were obtained from commercial sources. The spores were centrifuged at 6000 rpm for 10 minutes. The supernatant and coating chemical mixtures were heated at 60–80° C. for several minutes and vortexed to get the material into solution. The spores were then mixed into the sterilant-resistant chemical solution. The sterilant-resistant chemical solution was applied to 5×25 mm, 591 A paper strips (Schleicher & Schuell, Inc., Keene, N.H.) by pipetting 10–15 microliters to each strip for a final population of about 1×10^6 spores per strip. The strips were dried 16 hours at 37° C.
(§4) The treated spore strips were placed on the bottom of the outer container 12 of the indicator 10 and a barrier was inserted between the spore strip 16 and the inner container 18, which contained enzyme substrate. A […] ( 11/16 inch) disc of polypropylene blown microfiber material, with a weight of 200 g/m^2, commercially available as “THINSULATE™ 200-B brand Thermal Insulation” from 3M Company, St. Paul, Minn., was used as the barrier. The inner container 18 contained 0.67 ml nutrient medium, consisting of 17 g of a bacteriological peptone and a 0.17 g/l of L-alanine, as well as 0.1 g 4-methylumbelliferyl-alpha-D-glucoside, commercially available from Sigma Chemical Company, St. Louis, Mo., dissolved in 200 microliters of N,N-dimethylformamide, and 0.03 g bromocresol purple pH indicator dye, per liter of water. The pH of the enzyme substrate and nutrient medium solution was adjusted to 7.6 with 0.1N sodium hydroxide.
(§5) Sterilization indicators were made as described above with each of the chemicals and concentrations described in Table 1. Control indicators were made using untreated spores. The indicators were placed in metal instrument trays and exposed at 121° C. in a Getinge Steam Sterilizer (Getinge International, Inc., 1100 Towbin Ave., Lakewood, N.J.) using a 4-pulse prevacuum cycle at 121° C. with a vacuum level of 0.075–0.085 bar and a steam pulse to 1.00 bar for each pulse. Indicators were exposed in the sterilizer for between 7 and 13 minutes. This cycle is depicted in the time-pressure diagram in FIG. 5. After exposure the inner containers containing the enzyme substrate and nutrient medium were crushed and the indicators were incubated at 60° C. The indicators were examined for fluorescence using a 3M™ ATTEST™ Model 190 Rapid Autoreader, commercially available from 3M Company, St. Paul, Minn. Additionally, spore growth, as indicated by a color change from purple to yellow, was determined visually after 168 hours of incubation at 60° C. […]

[2] = system: Bacillus stearothermophilus spores; assay: Spore outgrowth (color change) of indicators after prevacuum steam sterilization; type: cell-based; conditions: Example 5, 4-pulse prevacuum steam 121° C., 7–13 min
Description: as §1, §2, §3, §4, §5

Substance | accuracy of sterilization indicators compared to indicators made with untreated spores [1] | FLUORESCENCE - PERCENT POSITIVE 1 HR ([1]; 50 mg/ml coating) [%] | FLUORESCENCE - PERCENT POSITIVE 2 HR ([1]; 50 mg/ml coating) [%] | FLUORESCENCE - PERCENT POSITIVE 3 HR ([1]; 50 mg/ml coating) [%] | FLUORESCENCE - PERCENT POSITIVE 4 HR ([1]; 50 mg/ml coating) [%] | FLUORESCENCE - PERCENT POSITIVE 1 HR ([1]; 100 mg/ml coating) [%] | FLUORESCENCE - PERCENT POSITIVE 2 HR ([1]; 100 mg/ml coating) [%] | FLUORESCENCE - PERCENT POSITIVE 3 HR ([1]; 100 mg/ml coating) [%] | FLUORESCENCE - PERCENT POSITIVE 4 HR ([1]; 100 mg/ml coating) [%] | NO. GROWTH POSITIVE 168 HR ([2]; 50 mg/ml coating) | NO. GROWTH POSITIVE 168 HR ([2]; 100 mg/ml coating)
Decaglyceryl Monoisostearate | improved | 33.3 | 77.8 | 88.9 | 88.9 | 37.5 | 100 | 100 | 100 | 9 | 8
POE(15) Glyceryl Monostearate | – | 0 | 0 | 42.9 | 57.1 | 0 | 0 | 0 | 0 | 7 | 4
Decaglyceryl Monomyristate | improved | 0 | 33.3 | 33.3 | 33.3 | 0 | 100 | 100 | 100 | 3 | 2
